# Earlier results in patent US9289440B2, “Intravenous formulation with water-soluble cocrystals of acetylsalicylic acid and theanine” (THEAPRIN PHARMACEUTICALS INC., priority 2009, dated 2016).
# Entries after “also recorded” stand apart in the source; their conditions may differ.
# Conditions: FDA Reports 2006-2008, single patient reports
structure (smiles),measurement,value
"CC(=O)Oc1ccccc1C(=O)O [Aspegic, lysine acetylsalicylate]",side effect after drug was administered,cardio-respiratory arrest and ventricular fibrillation and died; also recorded: angina pectoris and recovered
